Data taken from paper PMC11811690 (Angewandte Chemie (International Ed. in English), 2024).
Values after ≈ are worked out from the molar mass of the structure shown. Read-outs that look alike come from different tables or passages of the source.

How the values were obtained:
[1] = test system: M. tuberculosis H37Rv poly-g-GFP; test: microbe, parasite or virus in culture; type: cell-based; settings: Mycobacterium tuberculosis, H37RV, 240 h; concentration for 90 % inhibition of fluorescence as proxy for growth inhibition, 10 days, 37 °C; read-out: IC90 Mtb H37Rv-poly-g-GFP, fluorescence read-out
C. difficile 630 = test: microbe, parasite or virus in culture; type: cell-based, Clostridioides difficile
[2] = Clostridioides difficile, C. difficile 630, anaerobic, overnight, growth suppressed to OD600 < 0.15, read-out: MIC C. difficile

Row | SMILES | IC90 [1] [µg/mL] | MIC (C. difficile 630; [2]) [µg/mL] | MIC (C. difficile 630; Clostridioides difficile, 630, read-out: MIC C. difficile) [µg/mL]
1 | CC[C@H]1/C=C(\C)[C@@H](O)C/C=C/C=C(\CNc2cccc(CNC(=O)CCC(=O)O)c2)C(=O)O[C@H]([C@@H](C)O)C/C=C(C)/C=C(\C)[C@@H]1O[C@@H]1OC(C)(C)[C@@H](OC(=O)C(C)C)[C@H](O)[C@@H]1O [compound 28] | > 64 | 32 (≈ 36.8 µM) | 
2 | CC[C@H]1/C=C(\C)[C@@H](O)C/C=C/C=C(\CNc2cccc(CNC(=O)Cc3nnn[nH]3)c2)C(=O)O[C@H]([C@@H](C)O)C/C=C(C)/C=C(\C)[C@@H]1O[C@@H]1OC(C)(C)[C@@H](OC(=O)C(C)C)[C@H](O)[C@@H]1O [compound 29] | 64 (≈ 72.8 µM) | > 32 | 
3 | CC[C@H]1/C=C(\C)[C@@H](O)C/C=C/C=C(\CNc2cccc(CNC(=O)c3ccc(O)c(O)c3Cl)c2)C(=O)O[C@H]([C@@H](C)O)C/C=C(C)/C=C(\C)[C@@H]1O[C@@H]1OC(C)(C)[C@@H](OC(=O)C(C)C)[C@H](O)[C@@H]1O [compound 31] | > 64 | 32 (≈ 34.1 µM) | 
4 | CC[C@H]1/C=C(\C)[C@@H](O)C/C=C/C=C(\CNc2nc(-c3cccc(O)c3)cs2)C(=O)O[C@H]([C@@H](C)O)C/C=C(C)/C=C(\C)[C@@H]1O[C@@H]1OC(C)(C)[C@@H](OC(=O)C(C)C)[C@H](O)[C@@H]1O [compound 32] | 4 to 8 (≈ 4.77 to 9.53 µM) | 8 (≈ 9.53 µM) | 
5 | CC[C@H]1/C=C(\C)[C@@H](O)C/C=C/C=C(\CNc2nc(-c3cccc(OS(=O)(=O)F)c3)cs2)C(=O)O[C@H]([C@@H](C)O)C/C=C(C)/C=C(\C)[C@@H]1O[C@@H]1OC(C)(C)[C@@H](OC(=O)C(C)C)[C@H](O)[C@@H]1O [compound 33] | 8 to 16 (≈ 8.69 to 17.4 µM) |  | > 32
6 | CC[C@H]1/C=C(\C)[C@@H](O)C/C=C/C=C(\CNc2nc(-c3cccc(OS(=O)(=O)NC)c3)cs2)C(=O)O[C@H]([C@@H](C)O)C/C=C(C)/C=C(\C)[C@@H]1O[C@@H]1OC(C)(C)[C@@H](OC(=O)C(C)C)[C@H](O)[C@@H]1O [compound 34] | 8 (≈ 8.58 µM) | 1 (≈ 1.07 µM) | 
7 | CC[C@H]1/C=C(\C)[C@@H](O)C/C=C/C=C(\CNc2nc(-c3cccc(OS(=O)(=O)N(C)C)c3)cs2)C(=O)O[C@H]([C@@H](C)O)C/C=C(C)/C=C(\C)[C@@H]1O[C@@H]1OC(C)(C)[C@@H](OC(=O)C(C)C)[C@H](O)[C@@H]1O [compound 35] | 8 (≈ 8.45 µM) | > 32 | 
8 | CC[C@H]1/C=C(\C)[C@@H](O)C/C=C/C=C(\CNc2nc(-c3cccc(OS(=O)(=O)N4CCCC4)c3)cs2)C(=O)O[C@H]([C@@H](C)O)C/C=C(C)/C=C(\C)[C@@H]1O[C@@H]1OC(C)(C)[C@@H](OC(=O)C(C)C)[C@H](O)[C@@H]1O [compound 36] | 8 (≈ 8.23 µM) | > 32 | 
9 | CC[C@H]1/C=C(\C)[C@@H](O)C/C=C/C=C(\CNc2nc(-c3cccc(OS(=O)(=O)NCCOC)c3)cs2)C(=O)O[C@H]([C@@H](C)O)C/C=C(C)/C=C(\C)[C@@H]1O[C@@H]1OC(C)(C)[C@@H](OC(=O)C(C)C)[C@H](O)[C@@H]1O [compound 37] | 8 (≈ 8.19 µM) | 2 (≈ 2.05 µM) | 
10 | CC[C@H]1/C=C(\C)[C@@H](O)C/C=C/C=C(\CNc2nc(-c3cccc(OS(=O)(=O)Oc4ccccc4)c3)cs2)C(=O)O[C@H]([C@@H](C)O)C/C=C(C)/C=C(\C)[C@@H]1O[C@@H]1OC(C)(C)[C@@H](OC(=O)C(C)C)[C@H](O)[C@@H]1O [compound 38] | > 64 | > 32 | 
11 | CC[C@H]1/C=C(\C)[C@@H](O)C/C=C/C=C(\CN2CCN(C)CC2)C(=O)O[C@H]([C@@H](C)O)C/C=C(C)/C=C(\C)[C@@H]1O[C@@H]1OC(C)(C)[C@@H](O)[C@H](OC(=O)c2ccoc2)[C@@H]1O [compound 41] | > 64 |  | 
12 | CC[C@H]1/C=C(\C)[C@@H](O)C/C=C/C=C(\CN2CCCCC2)C(=O)O[C@H]([C@@H](C)O)C/C=C(C)/C=C(\C)[C@@H]1O[C@@H]1OC(C)(C)[C@@H](O)[C@H](OC(=O)c2ccoc2)[C@@H]1O [compound 42] | > 64 |  | 
13 | CC[C@H]1/C=C(\C)[C@@H](O)C/C=C/C=C(\CN2CCN(CCCN(C)C)CC2)C(=O)O[C@H]([C@@H](C)O)C/C=C(C)/C=C(\C)[C@@H]1O[C@@H]1OC(C)(C)[C@@H](O)[C@H](OC(=O)c2ccoc2)[C@@H]1O [compound 43] | 32 to 64 (≈ 38 to 76 µM) |  | 
14 | CC[C@H]1/C=C(\C)[C@@H](O)C/C=C/C=C(\CN2CCN(C)CC2)C(=O)O[C@H]([C@@H](C)O)C/C=C(C)/C=C(\C)[C@@H]1O[C@@H]1OC(C)(C)[C@@H](O)[C@H](OC(=O)c2ccn(C)n2)[C@@H]1O [compound 44] | > 64 |  | 
15 | CC[C@H]1/C=C(\C)[C@@H](O)C/C=C/C=C(\CN2CCN(C)CC2)C(=O)O[C@H]([C@@H](C)O)C/C=C(C)/C=C(\C)[C@@H]1O[C@@H]1OC(C)(C)[C@@H](O)[C@H](OC(=O)c2ccnn2C)[C@@H]1O [compound 45] | > 64 |  | 
16 | CC[C@H]1/C=C(\C)[C@@H](O)C/C=C/C=C(\CN2CCN(C)CC2)C(=O)O[C@H]([C@@H](C)O)C/C=C(C)/C=C(\C)[C@@H]1O[C@@H]1OC(C)(C)[C@@H](O)[C@H](OC(=O)c2cnn(C)c2)[C@@H]1O [compound 46] | > 64 |  | 
